From US6608082B1, “Treatment of erectile dysfunction using isoquinoline compound melanocortin receptor ligands” (Lion Bioscience AG, priority 1998, dated 2003)
Like-named read-outs stand apart in the source and are kept apart here. Each block holds one molecule with its values, some of them ahead of it.

Target: T1, MCR-1 (Homo sapiens, UniProt Q01726)
T1 construct: expressed in transfected cells; host or cells: HEK 293
Test: Melanocortin receptor binding assay, competition with 125I-HP 467, HEK 293 cells expressing hMCR-1
Details: for IC50: read-out: MC-1 IC50; for % Disp. of 125I-HP 467 (first of duplicate) / % Disp. of 125I-HP 467 (second of duplicate): 10 μM isoquinoline compound; for % Disp. of 125I-HP 467 (first of duplicate): HEK 293 cells expressing MCR-1, duplicate 1; for % Disp. of 125I-HP 467 (second of duplicate): HEK 293 cells expressing MCR-1, duplicate 2; for % Disp. MC-1 10 μM: displacement of 125I-HP 467 at 10 μM isoquinoline compound
Experimental: All cell culture media and reagents were obtained from GibcoBRL (Gaithersburg Md.), except for COSMIC CALF SERUM (HyClone; Logan Utah).
Cells were suspended in PBS, 10% COSMIC CALF SERUM and 1 mM CaCl2. Cell suspensions were prepared at a density of 2×10^4 cells/ml for HEK 293 cells expressing hMCR-3, hMCR-4 or hMCR-5, and 1×10^5 cells/ml for HEK 293 cells expressing hMCR-1. Suspensions were placed in a water bath and allowed to warm to 37° C. for 1 hr.
Binding assays were performed in a total volume of 250 μl for HEK 293 cells. […] To each tube was added 4×10^3 HEK 293 cells expressing hMCR-3, hMCR-4 or hMCR-5, or 2×10^4 cells expressing hMCR-1. Assays were incubated for 2.5 hr at 37° C.
GF/B filter plates were prepared by soaking for at least one hour in 5 mg/ml BSA and 10 mM CaCl2. Assays were filtered using a Brandel 96-well cell harvester (Brandel Inc.; Gaithersburg, Md.). The filters were washed four times with cold 50 mM Tris, pH 7.4, the filter plates were dehydrated for 2 hr and 35 μl of MICROSCINT was added to each well. Filter plates were counted using a Packard Topcount (Packard Instrument Co.) and data analyzed using GraphPad PRISM v2.0 (GraphPad Software Inc.; San Diego Calif.) and Microsoft EXCEL v5.0a (Microsoft Corp.; Redmond Wash.).
To assay isoquinoline compounds, binding assays were performed in duplicate in a 96 well format. […] A 0.2 ml aliquot of suspended cells was added to each well to give the cell numbers indicate above, and the cells were incubated at 37° C. for 2.5 hr. Cells were harvested on GF/B filter plates as described above and counted.

[1] = competition with 125I-HP 467, HEK 293 cells expressing MCR-1
[2] = inhibition of binding of 125I-HP 467, HEK 293 cells expressing MCR-1

T1 sequence (Q01726 whole entry): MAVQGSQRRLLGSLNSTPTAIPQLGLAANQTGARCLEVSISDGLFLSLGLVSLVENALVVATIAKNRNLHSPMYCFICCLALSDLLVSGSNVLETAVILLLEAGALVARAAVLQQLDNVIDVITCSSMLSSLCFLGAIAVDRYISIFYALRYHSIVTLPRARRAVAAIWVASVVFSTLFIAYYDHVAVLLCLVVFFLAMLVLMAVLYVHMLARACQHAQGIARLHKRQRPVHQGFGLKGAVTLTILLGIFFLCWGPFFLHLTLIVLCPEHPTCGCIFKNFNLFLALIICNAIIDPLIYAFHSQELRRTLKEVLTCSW

- IC50 [1]: 730 nM
Structure (SMILES): CNC(C)CNC(CN)CCCCN1Cc2ccccc2C(CNC2CCCCC2)C1c1ccc(-c2ccccc2)cc1 (mixture of isomers) [TRG 2411-15]

- IC50 [1]: 640 nM
Structure (SMILES): CCCCNc1ccc(C2C(CNC3CCCCC3)c3ccccc3CN2CCCCC(CN)NCCc2ccc(Br)cc2)cc1 (stereo not drawn) [TRG 2411-91]

- IC50 [1]: 20 nM
Structure (SMILES): CCCCNc1ccc(C2C(CN)c3ccccc3CN2CCCCC(CN)N2CCCC2)cc1 (stereo not drawn) [TRG 2411-103]

- % Disp. of 125I-HP 467 (first of duplicate): 55.9%
- % Disp. of 125I-HP 467 (second of duplicate): 57.7%
Structure (SMILES): CNC(CN)CCCCN1Cc2ccccc2C(CNC2CCCCC2)C1c1ccc(Br)o1 (stereo not drawn) [TRG 2405-269]

- % Disp. MC-1 10 μM (first of duplicate): 71%
- % Disp. MC-1 10 μM (second of duplicate): 59.6%
Structure (SMILES): CNC(CN)CN1Cc2ccccc2C(CNC2CCCCC2)C1c1ccc(Oc2ccccc2)cc1 (stereo not drawn) [TRG 2405-162]

- IC50 [2]: 880 nM
Structure (SMILES): CCCCCc1ccc(C2C(CNCCc3ccccc3)c3ccccc3CN2CCCCC(CN)NCCc2ccccc2)cc1 (stereo not drawn) [TRG 2412-14]

- % Disp. MC-1 10 μM (first of duplicate): 48.4%
- % Disp. MC-1 10 μM (second of duplicate): 45.9%
Structure (SMILES): NCCN1Cc2ccccc2C(CNC2CCCCC2)C1c1nccs1 (stereo not drawn) [TRG 2405-90]

- IC50 [1]: 190 nM
Structure (SMILES): CCCCNc1ccc(C2C(CNCCc3ccccc3)c3ccccc3CN2CCCCC(CN)NC)cc1 (stereo not drawn) [TRG 2411-73]

- % Disp. MC-1 10 μM (first of duplicate): 39.1%
- % Disp. MC-1 10 μM (second of duplicate): 46.9%
Structure (SMILES): CCn1c2ccccc2c2cc(C3C(CNC4CCCCC4)c4ccccc4CN3CCN)ccc21 (stereo not drawn) [TRG 2405-83]

- % Disp. MC-1 10 μM (first of duplicate): 52.8%
- % Disp. MC-1 10 μM (second of duplicate): 52.9%
Structure (SMILES): CNC(CN)CN1Cc2ccccc2C(CNC2CCCCC2)C1c1ccc(Br)cc1 (mixture of isomers) [TRG 2405-152]

- IC50 [2]: 230 nM
Structure (SMILES): CCNc1ccc(C2C(CNC3CCCCC3)c3ccccc3CN2CCCC(CN)NCCc2ccc(OC)cc2)cc1 (stereo not drawn) [TRG 2411-168]

- IC50 [1]: 1270 nM
Structure (SMILES): CCNC(CN)CCCN1Cc2ccccc2C(CN)C1c1ccc(-c2ccccc2)cc1 (stereo not drawn) [TRG 2411-138]

- IC50 [2]: 750 nM
Structure (SMILES): CCCCCc1ccc(C2C(CNCCc3ccccc3)c3ccccc3CN2CCCCC(CN)NCc2ccccc2)cc1 (stereo not drawn) [TRG 2412-15]

- IC50 [2]: 1840 nM
Structure (SMILES): CNC(CN)CCCN1Cc2ccccc2C(CN)C1c1ccc(-c2ccccc2)cc1 (stereo not drawn) [TRG 2413-8]

- IC50 [1]: 1480 nM
Structure (SMILES): CCNC(CN)CCCN1Cc2ccccc2C(CNC2CCCCC2)C1c1ccc(-c2ccccc2)cc1 (stereo not drawn) [TRG 2411-127]

- IC50 [1]: 230 nM
Structure (SMILES): CCCCNc1ccc(C2C(CN)c3ccccc3CN2CCCC(CN)NCCN)cc1 (stereo not drawn) [TRG 2409-229]

- % Disp. MC-1 10 μM (first of duplicate): 47.3%
- % Disp. MC-1 10 μM (second of duplicate): 58.9%
Structure (SMILES): CNC(CN)CN1Cc2ccccc2C(CNC2CCCCC2)C1c1cc(C(F)(F)F)cc(C(F)(F)F)c1 (mixture of isomers) [TRG 2405-118]

- % Disp. MC-1 10 μM (first of duplicate): 29.6%
- % Disp. MC-1 10 μM (second of duplicate): 41.7%
Structure (SMILES): CNC(CN)CN1Cc2ccccc2C(CNC2CCCCC2)C1c1ccc(OCCCN(C)C)cc1 (stereo not drawn) [TRG 2405-144]

- % Disp. of 125I-HP 467 (first of duplicate): 80.7%
- % Disp. of 125I-HP 467 (second of duplicate): 81.9%
Structure (SMILES): CNC(CN)CCCCN1Cc2ccccc2C(CNC2CCCCC2)C1c1ccc(C)s1 (stereo not drawn) [TRG 2405-258]

- IC50 [1]: 460 nM
Structure (SMILES): CCNC(CN)CCCCN1Cc2ccccc2C(CNC2CCCCC2)C1c1ccc(-c2ccccc2)cc1 (stereo not drawn) [TRG 2411-14]

- IC50 [2]: 590 nM
Structure (SMILES): CCOc1ccc(C2C(CNCCc3ccccc3)c3ccccc3CN2CCCCC(CN)NCc2ccccc2)cc1 (stereo not drawn) [TRG 2412-6]

- % Disp. of 125I-HP 467 (first of duplicate): 69.1%
- % Disp. of 125I-HP 467 (second of duplicate): 64.6%
Structure (SMILES): CNC(CN)CCCCN1Cc2ccccc2C(CNC2CCCCC2)C1c1ccccc1F (stereo not drawn) [TRG 2405-196]

- % Disp. MC-1 10 μM (first of duplicate): 60.1%
- % Disp. MC-1 10 μM (second of duplicate): 60.5%
Structure (SMILES): CCCOc1ccc(C2C(CNC3CCCCC3)c3ccccc3CN2CCN)cc1 (stereo not drawn) [TRG 2405-73]

- % Disp. of 125I-HP 467 (first of duplicate): 75.9%
- % Disp. of 125I-HP 467 (second of duplicate): 70.8%
Structure (SMILES): CNC(CN)CCCCN1Cc2ccccc2C(CNC2CCCCC2)C1c1cccc(C(F)(F)F)c1 (stereo not drawn) [TRG 2405-215]

- IC50 [1]: 1100 nM
Structure (SMILES): COCCNC(CN)CCCCN1Cc2ccccc2C(CNCCc2ccccc2)C1c1ccc(-c2ccccc2)cc1 (stereo not drawn) [TRG 2411-10]

- IC50 [2]: 110 nM
Structure (SMILES): CCCCNc1ccc(C2C(CN)c3ccccc3CN2CCCC(N)CN)cc1 (stereo not drawn) [TRG 2411-216]

- % Disp. of 125I-HP 467 (first of duplicate): 36.1%
- % Disp. of 125I-HP 467 (second of duplicate): 34.2%
Structure (SMILES): CNC(CN)CCCCN1Cc2ccccc2C(CNC2CCCCC2)C1c1cnc2ccccc2c1 (stereo not drawn) [TRG 2405-232]
